# Several values for one entry are separate records, joined by “and”; a condition that tells them apart may be missing. Identical values can stand only once.
# System: DOPAC release in the rat prefrontal cortex
# Experiment: Microdialysis: DOPAC release in prefrontal cortex after I.P. administration
# Type: in vivo
# Settings: Citalopram 10 mg/kg I.P.
# Protocol: The aim of the study was to evaluate, using microdialysis, the effects of an intraperitoneal (I.P.) administration in rats of three different doses of SON-117 on dopamine and its metabolites, serotonin and its metabolite (5-HIAA), and norepinephrine levels in prefrontal cortex.
# Thirty-two adult male Wistar rats were used for the whole study (4 groups of eight animals planned for the study, Table 1).
# Surgery was performed on rats weighing about 300 g at the beginning of the experiments. Rats were anaesthetized with Ketamine (50 mg/kg) & Xylazine (15 mg/kg) by intramuscular administration. The animals were placed in a stereotaxic apparatus in the flat-skull position at a constant setting of −3.3 mm between ear bars and the incisor bar. The animals were treated with a local anesthesic (xylocaine 1%, Astra Zeneca) and an analgesic (Temgesic, from Schering Plough, 0.05 mg/kg, s.c.). A rostrocaudal midline incision was made with a lancet to expose the dorsal skull surface. The “stereotaxic zero” was defined by the Bregma in accordance with Paxinos and Watson's atlas (1986). A hole was drilled in the skull with a drill and the meninges were pierced with a sterile needle to implant a CMA12 guide cannula which later received the dialysis probe.
# Coordinates used for implanting guide cannula in prefrontal cortex from Bregma were anteroposterior 3.7 mm, mediolateral 0.8 mm, and dorsoventral −2 mm (top of the probe was at −5 mm). The guide cannula was fixed to the skull with two stainless steel screws (1.88 mm outside diameter) anchored. An application of dental cement was added. A plastic collar allowed each animal to be tethered to a Swivel assembly of the CMA 120 awake animal system. Following surgery, rats were kept in individual cages and allowed to recover for a minimum of 3-5 days before the experimentation. The rats were handled and put in plastic bowl for 10 min at least every day to habituate the animals to their new environment for the dialysis. An I.P. administration with saline was also performed every day.
# Dialysis probes (CMA12/3 mm, membrane, 20 kD cut-off, Carnegie Medicine, Stockholm, Sweden), were carefully washed before inserting into the guide cannula. The wash was performed with the artificial cerebrospinal fluid (aCSF) medium (NaCl 147 mM, KCl 2.7 mM, CaCl2 1.2 mM, MgCl2 0.85 mM) at room temperature. The dialysis system was then equilibrated at 20° C. at a perfusion rate of 1 μl/min with a Carnegie pump (CMA100). All catheters (FEP tubing, internal volume of 1.2 μl/10 cm, and tubing adaptors) used for microdialysis were treated in the same conditions.
# The probes duly prepared were inserted into the guide cannula and the CMA120 Swivel assembly secured to the animal using a plastic collar. Flow through the dialysis probe with aCSF was maintained at a rate of 1 μl/min during the whole experimentation. The first four fractions (corresponding to 2 hours) were discarded to avoid the effects of parenchymal disturbance and to ensure that an approximate steady-state level was reached. Fractions were then collected over a period of 8.5 h during which time the animals remained quiet. The dialysates were automatically collected with an autosampler (microfraction collector CMA 140, Carnegie Medicin) and stored at −80° C. until analysis. […] Perfusion was then maintained for 7 hours with aCSF. The dialysates (30 μl) were collected into 300 μl vials, transferred into dry ice and then kept frozen (−80° C.) until analysis. Frozen samples were shipped to a partner for analysis. At the end of the microdialysis study, a PBS with colored ink was perfused through the probe in order to visualize the dialyzed area.
# Catecholamine assay: Concentrations of dopamine, DOPAC, HVA, 5-HIAA, 5-HT, and norepinephrin were determined for each sample by HPLC coupled with electrochemical detection.
structure (smiles),measurement,setting,value
"CN(C)CCCC1(c2ccc(F)cc2)OCc2cc(C#N)ccc21 (centres unmarked) [Citalopram, citalopram, reference compound]","DOPAC in dialysate, MEAN",T0-T30 min,92.52 % of respective basal
same,"DOPAC in dialysate, MEAN",T30-T1 h,101.61 % of respective basal
same,"DOPAC in dialysate, individual animals",T30-T1 h,108.24 % of respective basal and 101.84 % of respective basal and 110.81 % of respective basal and 140.94 % of respective basal and 90.86 % of respective basal and 86.64 % of respective basal and 74.29 % of respective basal and 104.04 % of respective basal
same,"DOPAC in dialysate, MEAN",T1 h 30-T2 h,103.07 % of respective basal
same,"DOPAC in dialysate, individual animals",T1 h 30-T2 h,97.22 % of respective basal and 94.96 % of respective basal and 95.81 % of respective basal and 121.29 % of respective basal and 99.84 % of respective basal and 90.48 % of respective basal and 98.93 % of respective basal and 130.18 % of respective basal
same,"DOPAC in dialysate, MEAN",T1 h-T1 h 30,102.71 % of respective basal
same,"DOPAC in dialysate, individual animals",T1 h-T1 h 30,108.8 % of respective basal and 86.27 % of respective basal and 95.17 % of respective basal and 138.08 % of respective basal and 88.43 % of respective basal and 88.97 % of respective basal and 77.44 % of respective basal and 143.24 % of respective basal
same,"DOPAC in dialysate, MEAN",T2 h 30-T3 h,86.26 % of respective basal
same,"DOPAC in dialysate, individual animals",T2 h 30-T3 h,68.83 % of respective basal and 76.04 % of respective basal and 88.98 % of respective basal and 94.72 % of respective basal and 88.97 % of respective basal and 81.12 % of respective basal and 86.11 % of respective basal and 108.52 % of respective basal
same,"DOPAC in dialysate, MEAN",T2 h-T2 h 30,91.70 % of respective basal
same,"DOPAC in dialysate, individual animals",T2 h-T2 h 30,100.58 % of respective basal and 87.15 % of respective basal and 91.10 % of respective basal and 94.66 % of respective basal and 82.72 % of respective basal and 76.32 % of respective basal and 84.28 % of respective basal and 120.05 % of respective basal
same,"DOPAC in dialysate, MEAN",T3 h 30-T4 h,92.94 % of respective basal
same,"DOPAC in dialysate, individual animals",T3 h 30-T4 h,98.62 % of respective basal and 88.8 % of respective basal and 84.72 % of respective basal and 92.54 % of respective basal and 81.68 % of respective basal and 80.31 % of respective basal and 88.84 % of respective basal and 131.20 % of respective basal
same,"DOPAC in dialysate, MEAN",T3 h-T3 h 30,89.35 % of respective basal
same,"DOPAC in dialysate, individual animals",T3 h-T3 h 30,108.36 % of respective basal and 74.94 % of respective basal and 89.42 % of respective basal and 83.63 % of respective basal and 84.95 % of respective basal and 77.32 % of respective basal and 85.84 % of respective basal and 113.17 % of respective basal
same,"DOPAC in dialysate, MEAN",T4 h 30-T5 h,97.96 % of respective basal
same,"DOPAC in dialysate, individual animals",T4 h 30-T5 h,118.57 % of respective basal and 89.81 % of respective basal and 82.60 % of respective basal and 77.02 % of respective basal and 90.64 % of respective basal and 94.78 % of respective basal and 95.64 % of respective basal and 137.22 % of respective basal
same,"DOPAC in dialysate, MEAN",T4 h-T4 h 30,94.89 % of respective basal
same,"DOPAC in dialysate, individual animals",T4 h-T4 h 30,107.03 % of respective basal and 83.51 % of respective basal and 92.76 % of respective basal and 82.75 % of respective basal and 83.92 % of respective basal and 79.63 % of respective basal and 104.47 % of respective basal and 127.87 % of respective basal
same,"DOPAC in dialysate, MEAN",T5 h 30-T6 h,101.76 % of respective basal
same,"DOPAC in dialysate, individual animals",T5 h 30-T6 h,132.77 % of respective basal and 85.32 % of respective basal and 85.38 % of respective basal and 97.98 % of respective basal and 88.27 % of respective basal and 108.01 % of respective basal and 92.66 % of respective basal and 127.03 % of respective basal
same,"DOPAC in dialysate, MEAN",T5 h-T5 h 30,93.03 % of respective basal
same,"DOPAC in dialysate, individual animals",T5 h-T5 h 30,75.53 % of respective basal and 93.40 % of respective basal and 85.99 % of respective basal and 86.97 % of respective basal and 95.22 % of respective basal and 104.27 % of respective basal and 122.75 % of respective basal
same,"DOPAC in dialysate, MEAN",T6 h 30-T7 h,100.53 % of respective basal
same,"DOPAC in dialysate, individual animals",T6 h 30-T7 h,119.00 % of respective basal and 87.46 % of respective basal and 83.16 % of respective basal and 92.30 % of respective basal and 79.40 % of respective basal
same,"DOPAC in dialysate, MEAN",T6 h-T6 h 30,96.87 % of respective basal
same,"DOPAC in dialysate, individual animals",T6 h-T6 h 30,117.46 % of respective basal and 79.52 % of respective basal and 81.29 % of respective basal and 39.89 % of respective basal and 77.98 % of respective basal and 106.17 % of respective basal and 94.72 % of respective basal and 131.51 % of respective basal
same,"DOPAC in dialysate, MEAN",T-30 min-T0 (pre-dose),96.20 % of respective basal
same,"DOPAC in dialysate, MEAN",T-1 h-T-30 min (pre-dose),98.03 % of respective basal
